Measured values taken from patent US10774053B2, “HIV protease inhibitors” (Gilead Sciences, Inc., priority 2017, dated 2020).

Key:
[1] = tested on: HIV-1 (IIIB) in MT-4 cells; assay: microbe, parasite or virus in culture; type: cell-based; conditions: Human immunodeficiency virus 1, IIIB, MT4, MT-4 cells, HIV-1; read-out: MT4 EC50
[2] = Liver microsomal stability, human liver microsomes; conditions: human, liver microsomes
Method: Liver Microsomal Stability Protocol
Test compounds and one control compound (verapamil) were tested in 3 different species in duplicate sets.
Test compound concentration: 1 uM; Protein concentration: 0.5 mg/mL (for dog, rat, and human liver microsomes); Cofactor: NADPH-Regenerating system (NRS) solution; Time-points: 2, 12, 25, 45, and 65 minutes.
Reaction Composition (in Each Incubation Well) Contains:
At an incubation temperature of 37° C., the reaction was started with addition of NADPH Regeneration System, at each time point, 25 uL of the reaction mixture was removed and added to a plate with 225 uL quenching solution (50% MeOH, 25% ACN, 25% H2O, and 200 nM labetalol as internal standard). After plates were vortexed, they were centrifuged for 30 minutes to remove proteins. About 100 μL supernatant was removed to a new plate and diluted with 150 μL water. About 20 μL of the mixture was injected into LC/MS/MS system to monitor the compound's response. In vitro measured t1/2 was used to calculate Clint values.

Row | Structure (SMILES) | EC50 [1] [nM] | half-life at 1 uM [2] [h]
1 | CC(C)(C)C[C@]1(c2ccc(-c3cnn(C(F)F)c3)cc2)NC(=N)N([C@H](COC(=O)N[C@@H]2CC2C(F)(F)F)c2ccc(Cl)c(-n3ncnc3C(F)F)c2)C1=O (single isomer, unassigned) [Compound 331] | 16.4 | ≥ 6.58
2 | CC(C)(C)C[C@]1(c2ccc3nc(C#Cc4ccccc4)ccc3c2)NC(=N)N([C@H](COC(=O)NC2(C(F)(F)F)CC2)c2ccc(Cl)c(-n3ncnc3C(F)F)c2)C1=O (stereo in doubt) [Compound 360] | 79.9 | ≥ 6.58
3 | CC(C)(C)C[C@]1(c2ccc(-c3cnn(C(F)F)c3)cc2)NC(=N)N([C@H](COC(=O)NC2CC2)c2ccc(Cl)c(-c3nccc(=O)[nH]3)c2)[C@H]1O [Compound 17] | 556 | ≥ 6.58
4 | CC(C)(C)C[C@]1(c2ccc(-c3cnn(C(F)F)c3)cc2)NC(=N)N([C@H](COC(=O)NC2(C(F)(F)F)CC2)c2ccc(Cl)c(-c3ccccn3)c2)C1=O [Compound 20] | 76.7 | ≥ 6.58
5 | [H]/N=C1\N[C@](CC(C)(C)C)(c2ccc(-c3cnn(C(F)F)c3)cc2)C(=O)N1[C@H](COC(=O)NC1CC1)c1ccc(Cl)c(-c2ncn(C(F)F)n2)c1 [Compound 34] | 38.7 | ≥ 6.58
6 | CC(C)(C)C[C@]1(c2ccc(-c3cnn(C(F)F)c3)cc2)NC(=N)N([C@H](COC(=O)NC2(C(F)(F)F)CC2)c2ccc(Cl)c(-c3nnn[nH]3)c2)C1=O [Compound 72] | 5710 | ≥ 6.58
7 | CC(C)(C)C[C@]1(c2ccc(-c3cnn(C(F)F)c3)cc2)NC(=N)N([C@H](COC(=O)NC(C)(C)C(F)F)c2ccc(Cl)c(-c3ncn[nH]3)c2)C1=O [Compound 78] | 74.9 | ≥ 6.58
8 | CC(C)(C)C[C@]1(c2ccc(-c3cnn(C(F)F)c3)cc2)NC(=N)N([C@H](COC(=O)NC(C)(C)C(F)F)c2ccc(Cl)c(-c3nccn3C(F)F)c2)C1=O [Compound 89] | 34.4 | ≥ 6.58
9 | CC(C)(C)C[C@]1(c2ccc3nc(C4CC4)ccc3c2)NC(=N)N([C@H](COC(=O)NC2(C(F)(F)F)CC2)c2ccc(Cl)c(-n3ncnc3C(F)F)c2)C1=O [Compound 353] | 8.59 | 
10 | CC(C)(C)C[C@]1(c2ccc3nc(C(F)F)ccc3c2)NC(=N)N([C@H](COC(=O)NC2(C(F)(F)F)CC2)c2ccc(Cl)c(-n3ncnc3C(F)F)c2)C1=O [Compound 354] | 5.06 | 
11 | CC(C)(C)C[C@]1(c2ccc(-n3cnnn3)c(F)c2)NC(=N)N([C@H](COC(=O)NC2(C(F)(F)F)CC2)c2ccc(Cl)c(-n3ncnc3C(F)F)c2)C1=O [Compound 355] | 24.6 | 
12 | CC(C)(C)C[C@]1(c2ccc(-c3nnn(C4CC4)n3)cc2)NC(=N)N([C@H](COC(=O)NC2(C(F)(F)F)CC2)c2ccc(Cl)c(-n3ncnc3C(F)F)c2)C1=O [Compound 356] | 19.5 | 
13 | Cn1nnc(-c2ccc([C@@]3(CC(C)(C)C)NC(=N)N([C@H](COC(=O)NC4(C(F)(F)F)CC4)c4ccc(Cl)c(-n5ncnc5C(F)F)c4)C3=O)cc2)n1 [Compound 357] | 10.6 | 
14 | Cn1nnnc1-c1ccc([C@@]2(CC(C)(C)C)NC(=N)N([C@H](COC(=O)NC3(C(F)(F)F)CC3)c3ccc(Cl)c(-n4ncnc4C(F)F)c3)C2=O)cc1 [Compound 358] | 76.2 | 
15 | CC(C)(CC#N)C[C@]1(c2ccc(-c3cnn(C4CC4)c3)cc2)NC(=N)N([C@H](COC(=O)NC2(C(F)(F)F)CC2)c2ccc(Cl)c(-n3ncnc3C(F)F)c2)C1=O [Compound 362] | 36.4 | 
16 | CC(C)(C)C[C@]1(c2ccc(-c3cn(C4(C(F)(F)F)CC4)nn3)cc2)NC(=N)N([C@H](COC(=O)NC2(C(F)(F)F)CC2)c2ccc(Cl)c(-n3ncnc3C(F)F)c2)C1=O [Compound 364] | 21.6 | 
17 | CC(C)(C)C[C@]1(c2ccc(-c3cnn(C(F)F)c3)cc2)NC(=N)N([C@H](COc2ccc(F)cc2F)c2ccc(Cl)c(-n3ncnc3C(F)F)c2)C1=O [Compound 365] | 143 | 

Row | Structure (SMILES) | EC50 [1] [nM] | half-life at 1 uM [2] [h]
18 | C[C@H](NC(=O)OC[C@H](c1ccc(Cl)c(-n2ncnc2C(F)F)c1)N1C(=N)N[C@](CC(C)(C)C)(c2ccn3nccc3c2)C1=O)C(F)(F)F [Compound 367] | 19 | 
19 | CC(C)n1ncc(-c2ccc([C@@]3(CC(C)(C)C)NC(=N)N([C@H](COC(=O)NC4(C(F)(F)F)CC4)c4ccc(Cl)c(-n5ncnc5C(F)F)c4)C3=O)cc2)n1 [Compound 371] | 26.7 | 
20 | CC(C)(C)C[C@]1(c2ccc(C(F)(F)F)cc2)NC(=N)N([C@H](COC(=O)NC2(C(F)(F)F)CC2)c2ccc(Cl)c(-n3ncnc3C(F)F)c2)C1=O [Compound 373] | 49.7 | 
21 | CC(C)(C)C[C@]1(c2ccc(-c3cnn(C(F)F)c3)cc2)NC(=N)N([C@H](COC(=O)NC2(C)CC2)c2cccc(-n3ncnc3C(F)F)c2)C1=O [Compound 375] | 30.8 | 
22 | CC(C)(C)C[C@]1(c2ccc(-c3cnn(C(F)F)c3)cc2)NC(=N)N([C@H](COC(=O)N(CC(F)F)C2CC2)c2ccc(Cl)c(-n3cncn3)c2)C1=O [Compound 376] | 12 | 
23 | CC(C)(C)C[C@]1(c2ccc(C#CC(C)(C)S(C)(=O)=O)cc2)NC(=N)N([C@H](COC(=O)NC(C)(C)C(F)F)c2ccc(Cl)c(-n3cncn3)c2)C1=O [Compound 377] | 90.7 | 
24 | CC(C)(C)C[C@]1(c2ccc(-c3ncon3)cc2)NC(=N)N([C@H](COC(=O)NC2(C(F)(F)F)CC2)c2ccc(Cl)c(-n3cncn3)c2)C1=O [Compound 378] | 35.6 | 
25 | CC(C)(C)C[C@]1(c2ccc(-c3cnn(C4CC4)n3)cc2)NC(=N)N([C@H](CNC(=O)C2CC2)c2ccc(Cl)c(-n3ncnc3C(F)F)c2)C1=O [Compound 381] | 24.8 | 
26 | CC(C)(C)C[C@]1(c2ccc(-c3cnn(C4CC4)n3)cc2)NC(=N)N([C@H](CNC(=O)C2(C)CC2)c2ccc(Cl)c(-n3ncnc3C(F)F)c2)C1=O [Compound 382] | 36.5 | 
27 | CC(C)(C)C[C@]1(c2ccc(-c3cnn(C4CC4)n3)cc2)NC(=N)N([C@H](CNC(=O)CC(F)(F)F)c2ccc(Cl)c(-n3ncnc3C(F)F)c2)C1=O [Compound 383] | 9.7 | 
28 | CC(C)(C)C[C@]1(c2ccc(-c3cnn(C4CC4)n3)cc2)NC(=N)N([C@H](CNC(=O)CC2CC2)c2ccc(Cl)c(-n3ncnc3C(F)F)c2)C1=O [Compound 384] | 18 | 
29 | C[C@H](C(=O)NC[C@H](c1ccc(Cl)c(-n2ncnc2C(F)F)c1)N1C(=N)N[C@](CC(C)(C)C)(c2ccc(-c3cnn(C4CC4)n3)cc2)C1=O)C(F)(F)F [Compound 385] | 12.8 | 
30 | C[C@@H](C(=O)NC[C@H](c1ccc(Cl)c(-n2ncnc2C(F)F)c1)N1C(=N)N[C@](CC(C)(C)C)(c2ccc(-c3cnn(C4CC4)n3)cc2)C1=O)C(F)(F)F [Compound 386] | 23.4 | 
31 | CC(C)C(=O)NC[C@H](c1ccc(Cl)c(-n2ncnc2C(F)F)c1)N1C(=N)N[C@](CC(C)(C)C(F)(F)F)(c2ccc(-c3cnn(C4CC4)n3)cc2)C1=O [Compound 388] | 16.9 | 
32 | C[C@@H](C(=O)NC[C@H](c1ccc(Cl)c(-n2ncnc2C(F)F)c1)N1C(=N)N[C@](CC(C)(C)C(F)(F)F)(c2ccc(-c3cnn(C4CC4)n3)cc2)C1=O)C(F)(F)F [Compound 390] | 20.9 | 
33 | [2H]C([2H])([2H])OC(=O)NC[C@H](c1ccc(Cl)c(-n2ncnc2C(F)F)c1)N1C(=N)N[C@](CC(C)(C)C(F)(F)F)(c2ccc(-c3cnn(C4CC4)n3)cc2)C1=O [Compound 393] | 27 | 
